For assay [1], the system named is nuclear foci in DM1 fibroblasts. In words: nuclear foci assay (in situ hybridisation with Cy3 CAG10 probe, high content imaging). Conditions: for activity in the nuclear foci assay (nuclear foci relative to DMSO treated cells): DM1 fibroblasts, 24 hours, dilution series; for reduction in foci on exposure for different lengths of time: 2 hours to 48 hours. It counts as cell-based. As to the method: Using a previously reported assay the PKIS collection was screened for compounds that reduce nuclear foci and the compounds were then analysed for their known selectivity profiles to identify the common kinase targets (Ketley, A. et al. (2014). Hum Mol Genet, 23: 1551-1562). […] Following treatment, fluorescent in situ hybridisation was performed with a cy3 labelled CAG10 probe, to visualize nuclear foci and cells were analysed on a Molecular Devices plate reader with customised MetaExpress software (Ketley, A. et al. (2014). Hum Mol Genet, 23: 1551-1562). Compounds that reduced nuclear foci in a concentration dependent manner, compared to DMSO treated cells were identified and prioritized for further study.
[…] Plates were analysed on a Molecular Devices Micro High Content Imaging system, with nine fields imaged per well to give approximately 100 cells per well, per compound treatment. The nuclear area was identified by Hoechst stain and the number, size and intensity of foci was determined by scoring adjacent pixels that were 80 grayscales or more above background.

Another assay has as its target CDK9 (Homo sapiens, UniProt P50750). The following applies: previously reported IC50 values (FIG. 13); cited from earlier work.
The subject of a further assay is HSALR mice. Put plainly: inhibitor treatment in DM1 mouse model. The following applies: compared to vehicle control animals. The assay is classed as in vivo. As to the method: FIG. 7: Inhibitor treatment in a DM1 mouse model (A) Combined myotonia grade scores in quadriceps, gastrocnemius and paraspinal muscles from HSALR mice following vehicle and dinaciclib compound treatment (n=6 per treatment group) (B) Myotonia grades by muscle type in dinaciclib and vehicle treated HSALR mice.
To establish the in vivo effect of this inhibitor HSA^LR mice were treated by intraperitoneal injection for a 28 day treatment period comprising 12 injections in total.

A further assay concerns the target T1, CDK12 (Homo sapiens, UniProt Q9NYV4).
T1 construct: endogenous in cells; host or cells: K562 or A204 cell extract
Put plainly: chemoproteomics dose-response competition binding with SNS-032 affinity matrix. The following applies: K562 or A204 cell extract, SNS-032 beads. An excerpt: FIG. 4: Chemoproteomics target deconvolution. IC50 values were generated by affinity capturing of kinases from K562 or A204 cell extract using beads derivatized with SNS-032, in the presence of different concentrations of free competing compound or vehicle (DMSO). pIC50 values are plotted against the pIC50 in the foci inhibition assay for each compound. A good correlation of kinase binding affinity with the inhibitory activity on foci is observed for CDKS, CDK7, CDK9, and CDK12. r: Pearson correlation coefficient; p: p-value (calculated probability).
To determine the specific CDKs responsible for the reduction of nuclear foci it was sought to expand the target coverage within the CDK family by the immobilization of two of the active compounds containing a suitable secondary amine; SNS-032 and AT7519 (FIG. 10). […] To confirm that the K562, A204 and DM1 cell lines express the same kinases a whole proteome analysis was conducted. All CDK/PCTK proteins identified by profiling were also identified in the cells used for the phenotypic foci assay as follows: […]
Affinity profiling was performed as described previously (Bantscheff, M. et al. (2007). Nat Biotechnol, 25: 1035-1044 and Bantscheff, M. et al. (2011). Nat Biotechnol, 29: 255-265). […] Proteins were alkylated, separated on 4-12% NuPAGE (Invitrogen), stained with colloidal Coomassie, and quantified by isobaric mass tagging and LC-MS/MS.

The subject of assay [2] is mutant DMPK transcripts in DM1 fibroblast cells. Put plainly: RT-PCR / BpmI assay for repeat expansion transcripts. The assay is classed as cell-based. As to the method: (A) Ethidium bromide stained gel showing RT-PCR products from nuclear (N) and cytoplasmic (C) RNA fractions following amplification and BpmI digest of a fragment of DMPK. GAPDH is used as a loading control. […] (D) DM1 cells treated with SNS-032 for 2 hours.
Reverse transcription was performed using 1 μg total RNA from compound-treated and untreated cells. […] For Genescan analysis primer N11 was labelled with FAM. Amplification was performed with a Tm of 58° C. The PCR product was subsequently heated to 95° C. for 2 minutes followed by cooling to 4° C. For Bpml restriction digestion analysis of DMPK PCR products, 8 μl of PCR mixture was digested overnight with restriction enzyme Bpml (NEB) in a total reaction volume of 20 μl at 37° C. The final products were analysed by electrophoresis at 90V with 3% agarose gels and the density of bands quantified using ImageJ software or by fragment analysis on an AB1377 sequencer followed by Genescan quantification.

Setting [3] is: DM1 cells, 2 hours treatment, no recovery time.

Molecules are shown by their SMILES.

CDK9, sequence (P50750 whole entry): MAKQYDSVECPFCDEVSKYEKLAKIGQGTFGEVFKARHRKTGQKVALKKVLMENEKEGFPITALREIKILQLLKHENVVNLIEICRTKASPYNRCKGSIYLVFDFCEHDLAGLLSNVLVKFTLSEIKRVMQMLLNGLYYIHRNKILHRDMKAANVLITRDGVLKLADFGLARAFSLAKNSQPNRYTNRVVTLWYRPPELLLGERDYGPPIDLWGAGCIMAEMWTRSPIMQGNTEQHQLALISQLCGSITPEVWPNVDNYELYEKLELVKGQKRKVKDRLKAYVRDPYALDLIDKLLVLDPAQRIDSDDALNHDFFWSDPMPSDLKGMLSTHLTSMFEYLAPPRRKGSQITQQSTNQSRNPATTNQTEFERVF
CDK9, sequence (O60563 whole entry partner): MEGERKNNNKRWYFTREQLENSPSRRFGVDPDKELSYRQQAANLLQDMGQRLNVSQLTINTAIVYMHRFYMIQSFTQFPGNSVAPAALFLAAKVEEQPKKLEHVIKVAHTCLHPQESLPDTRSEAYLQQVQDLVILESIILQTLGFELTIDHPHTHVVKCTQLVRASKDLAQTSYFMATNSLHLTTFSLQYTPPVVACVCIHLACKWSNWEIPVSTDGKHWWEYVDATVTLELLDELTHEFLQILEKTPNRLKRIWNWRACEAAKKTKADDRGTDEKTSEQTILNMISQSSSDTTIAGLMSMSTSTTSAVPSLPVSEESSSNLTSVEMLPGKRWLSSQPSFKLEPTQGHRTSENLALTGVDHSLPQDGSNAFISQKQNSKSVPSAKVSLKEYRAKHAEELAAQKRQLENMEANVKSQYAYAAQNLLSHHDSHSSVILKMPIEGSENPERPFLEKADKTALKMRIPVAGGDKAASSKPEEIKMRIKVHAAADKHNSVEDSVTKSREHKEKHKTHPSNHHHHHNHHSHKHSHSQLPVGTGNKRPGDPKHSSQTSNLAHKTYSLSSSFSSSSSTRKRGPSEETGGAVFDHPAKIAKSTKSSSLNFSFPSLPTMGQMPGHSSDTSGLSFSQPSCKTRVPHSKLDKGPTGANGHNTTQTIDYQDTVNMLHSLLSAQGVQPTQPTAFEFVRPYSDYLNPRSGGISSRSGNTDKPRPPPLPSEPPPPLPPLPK
T1 sequence (Q9NYV4 whole entry): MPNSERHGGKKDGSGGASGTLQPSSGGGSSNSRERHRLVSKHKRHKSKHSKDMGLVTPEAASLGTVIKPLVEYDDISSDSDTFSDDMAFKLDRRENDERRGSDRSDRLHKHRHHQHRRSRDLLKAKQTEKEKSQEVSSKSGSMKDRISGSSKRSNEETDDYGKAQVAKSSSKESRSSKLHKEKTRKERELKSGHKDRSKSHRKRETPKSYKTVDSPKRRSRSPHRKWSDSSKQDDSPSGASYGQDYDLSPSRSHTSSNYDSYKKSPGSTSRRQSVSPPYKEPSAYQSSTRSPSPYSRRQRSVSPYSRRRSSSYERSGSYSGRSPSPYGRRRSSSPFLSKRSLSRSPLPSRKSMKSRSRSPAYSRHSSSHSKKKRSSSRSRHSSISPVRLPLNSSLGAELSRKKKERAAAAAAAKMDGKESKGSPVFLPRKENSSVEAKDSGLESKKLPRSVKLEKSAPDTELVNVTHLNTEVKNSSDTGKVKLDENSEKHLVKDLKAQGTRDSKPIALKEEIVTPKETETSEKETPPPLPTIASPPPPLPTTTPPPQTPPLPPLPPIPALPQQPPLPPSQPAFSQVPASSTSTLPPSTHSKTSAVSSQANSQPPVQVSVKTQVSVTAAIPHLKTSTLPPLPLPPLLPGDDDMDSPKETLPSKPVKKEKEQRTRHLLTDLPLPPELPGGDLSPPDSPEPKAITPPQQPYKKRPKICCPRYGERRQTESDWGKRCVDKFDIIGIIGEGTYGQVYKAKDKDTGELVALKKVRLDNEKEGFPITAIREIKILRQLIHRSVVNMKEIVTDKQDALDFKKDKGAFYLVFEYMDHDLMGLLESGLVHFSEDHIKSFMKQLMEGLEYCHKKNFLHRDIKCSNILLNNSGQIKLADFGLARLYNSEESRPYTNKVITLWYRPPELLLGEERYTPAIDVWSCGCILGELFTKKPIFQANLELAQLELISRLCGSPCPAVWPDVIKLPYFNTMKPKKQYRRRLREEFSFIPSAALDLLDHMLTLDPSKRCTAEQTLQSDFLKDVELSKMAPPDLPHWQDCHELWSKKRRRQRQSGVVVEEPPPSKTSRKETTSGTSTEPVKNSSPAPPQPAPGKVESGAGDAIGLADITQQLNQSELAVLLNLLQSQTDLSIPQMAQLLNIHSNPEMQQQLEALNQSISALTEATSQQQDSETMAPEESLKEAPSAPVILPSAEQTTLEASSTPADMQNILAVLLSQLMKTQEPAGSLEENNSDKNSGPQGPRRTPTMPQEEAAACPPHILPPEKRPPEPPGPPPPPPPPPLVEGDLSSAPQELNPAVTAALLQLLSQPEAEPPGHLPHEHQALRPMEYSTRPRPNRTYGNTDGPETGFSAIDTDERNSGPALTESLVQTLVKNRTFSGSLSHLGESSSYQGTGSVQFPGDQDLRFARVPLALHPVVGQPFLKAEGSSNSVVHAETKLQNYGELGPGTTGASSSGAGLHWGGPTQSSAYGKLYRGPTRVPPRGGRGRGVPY
T1 sequence (O75909 whole entry partner): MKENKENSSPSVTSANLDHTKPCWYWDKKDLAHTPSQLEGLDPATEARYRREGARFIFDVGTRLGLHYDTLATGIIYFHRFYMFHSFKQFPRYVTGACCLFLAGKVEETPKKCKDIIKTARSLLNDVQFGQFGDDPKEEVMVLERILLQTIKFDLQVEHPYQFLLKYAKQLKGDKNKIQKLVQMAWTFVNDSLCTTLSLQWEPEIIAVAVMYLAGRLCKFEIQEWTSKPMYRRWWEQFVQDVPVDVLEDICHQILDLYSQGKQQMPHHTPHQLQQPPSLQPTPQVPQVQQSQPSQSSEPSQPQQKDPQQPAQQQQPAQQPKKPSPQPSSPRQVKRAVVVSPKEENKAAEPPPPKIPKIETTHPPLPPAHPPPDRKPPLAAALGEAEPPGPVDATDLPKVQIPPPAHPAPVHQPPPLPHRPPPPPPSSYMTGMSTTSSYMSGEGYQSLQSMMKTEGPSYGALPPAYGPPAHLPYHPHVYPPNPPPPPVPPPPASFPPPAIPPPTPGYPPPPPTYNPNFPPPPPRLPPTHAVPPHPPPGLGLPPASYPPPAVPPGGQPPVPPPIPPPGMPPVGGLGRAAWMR

As to `O=C(NC1CCNCC1)c1[nH]ncc1NC(=O)c1c(Cl)cccc1Cl` [AT-7519], the “activity in the nuclear foci assay (nuclear foci relative to DMSO treated cells)” value in assay [1] is recorded as “high activity”. In addition, the “potency against CDK9” value on CDK9 is listed as “highest potency”.

Take `CC(C)(C)c1cnc(CSc2cnc(NC(=O)C3CCNCC3)s2)o1` [SNS-032]: the “cells without nuclear foci” value in assay [1] (DM1 cells, 2 hours treatment, 48 hours recovery) is recorded as 14%. Besides, the “cells without nuclear foci” value in assay [1] (DM1 cells, 2 hours treatment, 72 hours recovery) came out at 36%. In addition, in assay [1] (setting [3]), the “cells with more than 5 foci” value was determined as 28% and the “cells with no foci” value was determined as 10%. Also, in assay [1] (DM1 fibroblast cells), the “treatment time after which foci reduction was effective” value was 2 h and the “reduction in foci on exposure for different lengths of time” value is on record as “significant reduction in foci”. For the same compound, in assay [1], the “activity in the nuclear foci assay (nuclear foci relative to DMSO treated cells)” value is recorded as “high activity”. Besides, on CDK9, the “potency against CDK9” value is “highest potency”.

For `CCc1cnn2c(NCc3ccc[n+]([O-])c3)cc(N3CCCC[C@H]3CCO)nc12` [dinaciclib], in the assay on HSALR mice, the “centralised nuclei in muscle fibres (laminin stain)” value is listed as “reduction in centralised nuclei”. Also, the “activity against the CDK family, in particular CDK12” value on CDK12 was “most active inhibitor”. For the same compound, the “reduction in foci on exposure for different lengths of time” value in assay [1] (DM1 fibroblast cells) is recorded as “significant reduction in foci”. The “activity in the nuclear foci assay (nuclear foci relative to DMSO treated cells)” value in assay [1] is “significantly increased activity”. Further, the “location of repeat expansion transcripts after treatment (nuclear and cytoplasmic extracts)” value in assay [2] is “still retained within the nuclear fraction”. In assay [2] (1 μM, 24 hours, Genescan), the “decrease in the relative proportion of repeat expansion transcripts compared to wild type transcripts in the nucleus” value is recorded as 59%.
